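Results reflect a 48-hour exposure of cells in 96-well plates to compound at five concentrations. The concentration for 50% growth inhibition is given as GI50. TGI is the concentration that stops growth completely.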
Tests used:
Assay in all cases: inhibition of tumour cell growth, NCI panel, 48 h
OVCAR-5 ovarian = tested on: OVCAR-5 ovarian
PC-3 prostate = tested on: PC-3 prostate
OVCAR-3 ovarian = tested on: OVCAR-3 ovarian
EKVX NSCLC = tested on: EKVX NSCLC
TK-10 renal = tested on: TK-10 renal
RPMI-8226 leukemia = tested on: RPMI-8226 leukemia
NCI-H226 lung = tested on: NCI-H226 lung
SW-620 colon = tested on: SW-620 colon
LOX IMVI melanoma = tested on: LOX IMVI melanoma
A498 renal = tested on: A498 renal
SK-OV-3 ovarian = tested on: SK-OV-3 ovarian
T-47D breast = tested on: T-47D breast
BT-549 breast = tested on: BT-549 breast
ACHN renal = tested on: ACHN renal
IGROV1 ovarian = tested on: IGROV1 ovarian
U251 CNS = tested on: U251 CNS
SNB-75 CNS = tested on: SNB-75 CNS
CCRF-CEM leukemia = tested on: CCRF-CEM leukemia
SK-MEL-28 melanoma = tested on: SK-MEL-28 melanoma
MDA-MB-468 breast = tested on: MDA-MB-468 breast
NCI/ADR-RES ovarian = tested on: NCI/ADR-RES ovarian
OVCAR-8 ovarian = tested on: OVCAR-8 ovarian
CAKI-1 renal = tested on: CAKI-1 renal
SF-539 CNS = tested on: SF-539 CNS
A549 NSCLC = tested on: A549 NSCLC
DU-145 prostate = tested on: DU-145 prostate
MOLT-4 leukemia = tested on: MOLT-4 leukemia
NCI-H522 lung = tested on: NCI-H522 lung
HOP-92 NSCLC = tested on: HOP-92 NSCLC
HOP-62 NSCLC = tested on: HOP-62 NSCLC
MDA-MB-435 = tested on: MDA-MB-435
RXF 393 renal = tested on: RXF 393 renal
UACC-257 melanoma = tested on: UACC-257 melanoma
KM12 colon = tested on: KM12 colon
SK-MEL-5 melanoma = tested on: SK-MEL-5 melanoma
MCF7 breast = tested on: MCF7 breast
UO-31 renal = tested on: UO-31 renal
HCT-116 colon = tested on: HCT-116 colon
SN12C renal = tested on: SN12C renal
SF-295 CNS = tested on: SF-295 CNS
OVCAR-4 ovarian = tested on: OVCAR-4 ovarian
MDA-MB-231 breast = tested on: MDA-MB-231 breast
SF-268 CNS = tested on: SF-268 CNS
HL-60(TB) leukemia = tested on: HL-60(TB) leukemia
UACC-62 melanoma = tested on: UACC-62 melanoma
SK-MEL-2 melanoma = tested on: SK-MEL-2 melanoma
M14 melanoma = tested on: M14 melanoma
HT29 colon = tested on: HT29 colon
HS 578T breast = tested on: HS 578T breast
NCI-H23 lung = tested on: NCI-H23 lung
MALME-3M melanoma = tested on: MALME-3M melanoma
HCT-15 colon = tested on: HCT-15 colon
K-562 leukemia = tested on: K-562 leukemia
NCI-H460 lung = tested on: NCI-H460 lung
COLO 205 colon = tested on: COLO 205 colon
786-0 renal = tested on: 786-0 renal
HCC-2998 colon = tested on: HCC-2998 colon
SNB-19 CNS = tested on: SNB-19 CNS

## O=C(c1ccc(OCCN2CCOCC2)cc1)C1[C@H](c2ccc(Cl)cc2)[C@@H](c2ccccc2)NC12C(=O)Nc1ccc(Cl)cc12 (stereo partly specified)
OVCAR-5 ovarian
  GI50: 8.98 µM
  TGI: 25.4 µM
PC-3 prostate
  GI50: 7.93 µM
  TGI: 20.3 µM
OVCAR-3 ovarian
  GI50: 8.24 µM
  TGI: 20.1 µM
EKVX NSCLC
  GI50: 8.46 µM
  TGI: 27.2 µM
TK-10 renal
  GI50: 9.96 µM
  TGI: 33.7 µM
RPMI-8226 leukemia
  GI50: 10.3 µM
  TGI: 29.9 µM
NCI-H226 lung
  GI50: 8.06 µM
  TGI: 19.5 µM
SW-620 colon
  GI50: 8.77 µM
  TGI: 18.9 µM
LOX IMVI melanoma
  GI50: 7.35 µM
  TGI: 13.7 µM
A498 renal
  GI50: 8.24 µM
  TGI: 23.2 µM
SK-OV-3 ovarian
  GI50: 15.4 µM
  TGI: > 47.3 µM
T-47D breast
  GI50: 13.5 µM
  TGI: > 47.3 µM
BT-549 breast
  GI50: 8.58 µM
  TGI: 23.5 µM
ACHN renal
  GI50: 11.9 µM
  TGI: 40.9 µM
IGROV1 ovarian
  GI50: 9.58 µM
  TGI: 23.9 µM
U251 CNS
  GI50: 7.15 µM
  TGI: 14.6 µM
SNB-75 CNS
  GI50: 4.11 µM
  TGI: > 47.3 µM
CCRF-CEM leukemia
  GI50: 10.6 µM
  TGI: 27.1 µM
SK-MEL-28 melanoma
  GI50: 7.8 µM
  TGI: 14.6 µM
MDA-MB-468 breast
  GI50: 7.43 µM
  TGI: 20.4 µM
NCI/ADR-RES ovarian
  GI50: 11.1 µM
  TGI: 31.2 µM
OVCAR-8 ovarian
  GI50: 13.6 µM
  TGI: > 47.3 µM
CAKI-1 renal
  GI50: 8.1 µM
  TGI: 39.5 µM
SF-539 CNS
  GI50: 8 µM
  TGI: 15 µM
A549 NSCLC
  GI50: 12.6 µM
  TGI: > 47.3 µM
DU-145 prostate
  GI50: 10.9 µM
  TGI: 28.2 µM
MOLT-4 leukemia
  GI50: 7.53 µM
  TGI: 27.9 µM
NCI-H522 lung
  GI50: 9.75 µM
  TGI: 21.3 µM
HOP-92 NSCLC
  GI50: 6.85 µM
  TGI: 18.7 µM
HOP-62 NSCLC
  GI50: 9.46 µM
  TGI: 19.5 µM
MDA-MB-435
  GI50: 7.85 µM
  TGI: 15.8 µM
RXF 393 renal
  GI50: 6.14 µM
  TGI: 13.6 µM
UACC-257 melanoma
  GI50: 9.69 µM
  TGI: 34.2 µM
KM12 colon
  GI50: 8.31 µM
  TGI: 18.2 µM
SK-MEL-5 melanoma
  GI50: 5.4 µM
  TGI: 11.8 µM
MCF7 breast
  GI50: 8.4 µM
  TGI: 27.8 µM
UO-31 renal
  GI50: 7.25 µM
  TGI: 23.7 µM
HCT-116 colon
  GI50: 8.02 µM
  TGI: 15.9 µM
SN12C renal
  GI50: 6.75 µM
  TGI: 13 µM
SF-295 CNS
  GI50: 7.41 µM
  TGI: 14.4 µM
OVCAR-4 ovarian
  GI50: 11 µM
  TGI: 39.2 µM
MDA-MB-231 breast
  GI50: 7.62 µM
  TGI: 14.4 µM
SF-268 CNS
  GI50: 10.6 µM
  TGI: > 47.3 µM
HL-60(TB) leukemia
  GI50: 12 µM
  TGI: 34.9 µM
UACC-62 melanoma
  GI50: 6.42 µM
  TGI: 12.8 µM
SK-MEL-2 melanoma
  GI50: 7.85 µM
  TGI: 15.7 µM
M14 melanoma
  GI50: 8.04 µM
  TGI: 15.8 µM
HT29 colon
  GI50: 7.49 µM
  TGI: 16.7 µM
HS 578T breast
  GI50: 7.88 µM
  TGI: 21.6 µM
NCI-H23 lung
  GI50: 8.72 µM
  TGI: 18.2 µM
MALME-3M melanoma
  GI50: 7.11 µM
  TGI: 14.3 µM
HCT-15 colon
  GI50: 7.53 µM
  TGI: 15.9 µM
K-562 leukemia
  GI50: 12.8 µM
  TGI: > 47.3 µM
NCI-H460 lung
  GI50: 8.9 µM
  TGI: 19.1 µM
COLO 205 colon
  GI50: 8.43 µM
  TGI: 16.8 µM
786-0 renal
  GI50: 8.8 µM
  TGI: 19.6 µM
HCC-2998 colon
  GI50: 7.6 µM
  TGI: 14.9 µM
SNB-19 CNS
  GI50: 10.6 µM
  TGI: 34.9 µM
